Common to all, as to type: in vivo
Test [1] deals with Diabrotica balteata (Corn Root Worm). Kind of test: Example B2: Diabrotica balteata, sprayed maize sprouts, L2 larvae. Particulars: for percent effect (mortality or growth inhibition) at 200 ppm: Diabrotica balteata, 96 h, application rate of 200 ppm, 4 days after infestation, L2 larvae, read-out: effect in at least one of the two categories (mortality or growth inhibition). The protocol: Example B2: Diabrotica balteata (Corn Root Worm)
Maize sprouts placed onto an agar layer in 24-well microtiter plates were treated with aqueous test solutions prepared from 10,000 ppm DMSO stock solutions by spraying. After drying, the plates were infested with L2 larvae (6 to 10 per well). The samples were assessed for mortality and growth inhibition in comparison to untreated samples 4 days after infestation. The following compounds gave an effect of at least 80% in at least one of the two categories (mortality or growth inhibition) at an application rate of 200 ppm:
(§1) Insecticidal action against Diabrotica balteata (Corn root worm), Plutella xylostella (Diamond black moth), and Spodoptera littoralis (Egyptian cotton leaf worm). The tests were carried out as described in biological examples B2, B8 and B9, respectively, with the larval feeding/contact activity (mortality only) being reported as Breakpoint (BP80) values in parts per million (i.e. the lowest concentration which gives 80% larval mortality).

In test [2] the test system is Spodoptera littoralis (Egyptian Cotton Leaf Worm). Kind of test: Example B9: Spodoptera littoralis, cotton leaf discs, L1 larvae. As to conditions: for percent control (mortality, anti-feedant effect or growth inhibition) at 200 ppm: Spodoptera littoralis, foliar, 72 h, application rate of 200 ppm, 3 days after infestation, L1 larvae. Here is the method:
Example B9: Spodoptera littoralis (Egyptian Cotton Leaf Worm)
Cotton leaf discs were placed onto agar in 24-well microtiter plates and sprayed with aqueous test solutions prepared from 10,000 ppm DMSO stock solutions. After drying the leaf discs were infested with five L1 larvae. The samples were assessed for mortality, anti-feeding effect, and growth inhibition in comparison to untreated samples 3 days after infestation. Control of Spodoptera littoralis by a test sample is given when at least one of the categories mortality, anti-feedant effect, and growth inhibition is higher than the untreated sample.
as §1

In test [3] the test system is Myzus persicae (Green Peach Aphid). Kind of test: Example B5: Myzus persicae feeding/contact activity, sunflower leaf discs. Particulars: foliar, 144 h, application rate of 200 ppm, 6 days after infestation. Here is the method:
Example B5: Myzus persicae (Green Peach Aphid): Feeding/Contact Activity
Sunflower leaf discs were placed onto agar in a 24-well microtiter plate and sprayed with aqueous test solutions prepared from 10,000 ppm DMSO stock solutions. After drying, the leaf discs were infested with an aphid population of mixed ages. The samples were assessed for mortality 6 days after infestation.

The subject of test [4] is Plutella xylostella (Diamond Back Moth). Kind of test: Example B8: Plutella xylostella, artificial diet, L2 larvae. Particulars: for percent effect (mortality or growth inhibition) at 200 ppm: Plutella xylostella, 120 h, application rate of 200 ppm, 5 days after infestation, L2 larvae, read-out: effect in at least one of the two categories (mortality or growth inhibition). Here is the method: Example B8: Plutella xylostella (Diamond Back Moth)
24-well microtiter plates with artificial diet were treated with aqueous test solutions prepared from 10,000 ppm DMSO stock solutions by pipetting. After drying, the plates were infested with L2 larvae (10 to 15 per well). The samples were assessed for mortality and growth inhibition in comparison to untreated samples 5 days after infestation. The following compounds gave an effect of at least 80% in at least one of the two categories (mortality or growth inhibition) at an application rate of 200 ppm:
as §1

The subject of test [5] is Euschistus heros (Neotropical Brown Stink Bug). Kind of test: Example B3: Euschistus heros, sprayed soybean leaves, N2 nymphs. As to conditions: 120 h, application rate of 200 ppm, 5 days after infestation, read-out: effect in at least one of the two categories (mortality or growth inhibition). The protocol:
Example B3: Euschistus heros (Neotropical Brown Stink Bug)
Soybean leaves on agar in 24-well microtiter plates were sprayed with aqueous test solutions prepared from 10,000 ppm DMSO stock solutions. After drying the leaves were infested with N2 nymphs. The samples were assessed for mortality and growth inhibition in comparison to untreated samples 5 days after infestation. The following compounds gave an effect of at least 80% in at least one of the two categories (mortality or growth inhibition) at an application rate of 200 ppm: […]

By mortality is commonly meant the share of the test organisms that died. Low readings indicate more survivors, high ones fewer survivors.

Consider `CCS(=O)(=O)c1sc(-c2ccc(Cl)cc2)nc1-c1nc2cc(C(F)(F)F)ncc2n1C` [Example P-19, 2-(4-chlorophenyl)-5-ethylsulfonyl-4-[3-methyl-6-(trifluoromethyl)imidazo[4,5-c]pyridin-2-yl]thiazole], for which the percent effect (mortality or growth inhibition) at 200 ppm in test [1] was at least 80%. This molecule also had a percent control (mortality, anti-feedant effect or growth inhibition) at 200 ppm in test [2] of at least 80%.

For the molecule `CCSc1nc(Br)sc1-c1nc2cc(C(F)(F)F)ncc2n1C` [Example I-5, 2-bromo-4-ethylsulfanyl-5-[3-methyl-6-(trifluoromethyl)imidazo[4,5-c]pyridin-2-yl]thiazole], the mortality at 200 ppm in test [3] is at least 80%.

With `CCS(=O)(=O)c1sc(-n2ccc(C(F)(F)F)n2)nc1-c1nc2cc(C(F)(F)F)ncc2n1C` [Example P-20, 5-ethylsulfonyl-4-[3-methyl-6-(trifluoromethyl)imidazo[4,5-c]pyridin-2-yl]-2-[3-(trifluoromethyl)pyrazol-1-yl]thiazole], the percent effect (mortality or growth inhibition) at 200 ppm in test [4], in test [1] and in test [5] was at least 80% each time. For the same molecule, the percent control (mortality, anti-feedant effect or growth inhibition) at 200 ppm in test [2] was at least 80%.

With `CCS(=O)(=O)c1cc(-c2ncccn2)sc1-c1nc2cc(SC(F)(F)F)ncc2n1C` [Example P-16, 2-(3-ethylsulfonyl-5-pyrimidin-2-yl-2-thienyl)-3-methyl-6-(trifluoromethylsulfanyl)imidazo[4,5-c]pyridine], the percent effect (mortality or growth inhibition) at 200 ppm in test [4], in test [1] and in test [5] was at least 80% in each case. The molecule further showed a percent control (mortality, anti-feedant effect or growth inhibition) at 200 ppm in test [2] of at least 80%.

With `CCS(=O)(=O)c1cc(C(F)(F)F)sc1-c1nc2cc(C(F)(F)F)ncc2n1C` [Example V14.01, reference compound], in test [4] (larval feeding/contact activity, mortality only, test as in B8), the “BP80 (Breakpoint, lowest concentration which gives 80% larval mortality) Plutella xylostella” value amounted to 50 ppm. For the same molecule, in test [1] (larval feeding/contact activity, mortality only, test as in B2), the “BP80 (Breakpoint, lowest concentration which gives 80% larval mortality) Diabrotica balteata” value came to 50 ppm. For the same molecule, the “BP80 (Breakpoint, lowest concentration which gives 80% larval mortality) Spodoptera littoralis” value in test [2] (larval feeding/contact activity, mortality only, test as in B9) is 50 ppm.

As to `CCSc1sc(-n2ccc(C(F)(F)F)n2)nc1-c1nc2cc(C(F)(F)F)ncc2n1C` [Example P-21, 5-ethylsulfanyl-4-[3-methyl-6-(trifluoromethyl)imidazo[4,5-c]pyridin-2-yl]-2-[3-(trifluoromethyl)pyrazol-1-yl]thiazole], the percent effect (mortality or growth inhibition) at 200 ppm in test [1] was at least 80%.

The molecule `CCS(=O)(=O)c1cc(-n2ccc(C(F)(F)F)n2)sc1-c1nc2cc(C(F)(F)F)ncc2n1C` [Example P-2, 2-[3-ethylsulfonyl-5-[3-(trifluoromethyl)pyrazol-1-yl]-2-thienyl]-3-methyl-6-(trifluoromethyl)imidazo[4,5-c]pyridine] gave a mortality at 200 ppm in test [3] of at least 80%. The percent effect (mortality or growth inhibition) at 200 ppm in test [4], in test [1] and in test [5] was at least 80% throughout. In test [2], this molecule returned a percent control (mortality, anti-feedant effect or growth inhibition) at 200 ppm of at least 80%.

Consider `CCS(=O)(=O)c1c(-c2nc3cc(C(F)(F)F)ncc3n2C)sc(-c2ccc(Cl)cc2)c1Cl` [Example P-8, 2-[4-chloro-5-(4-chlorophenyl)-3-ethylsulfonyl-2-thienyl]-3-methyl-6-(trifluoromethyl)imidazo[4,5-c]pyridine], for which the percent effect (mortality or growth inhibition) at 200 ppm in test [4] and in test [1] was at least 80% throughout. The molecule also registered a percent control (mortality, anti-feedant effect or growth inhibition) at 200 ppm in test [2] of at least 80%.

As for `CCS(=O)(=O)c1sc(-c2ncccn2)nc1-c1nc2cc(C(F)(F)F)ncc2n1C` [Example P-23, 5-ethylsulfonyl-4-[3-methyl-6-(trifluoromethyl)imidazo[4,5-c]pyridin-2-yl]-2-pyrimidin-2-yl-thiazole], the percent effect (mortality or growth inhibition) at 200 ppm in test [4] and in test [1] was at least 80% throughout. In test [2], this molecule came in with a percent control (mortality, anti-feedant effect or growth inhibition) at 200 ppm of at least 80%.

As for `CCSc1c(-c2nc3cc(C(F)(F)F)ncc3n2C)sc(-c2ccc(Cl)cc2)c1Cl` [Example P-7, 2-[4-chloro-5-(4-chlorophenyl)-3-ethylsulfanyl-2-thienyl]-3-methyl-6-(trifluoromethyl)imidazo[4,5-c]pyridine], the percent effect (mortality or growth inhibition) at 200 ppm in test [4], in test [1] and in test [5] was at least 80% in each case. The percent control (mortality, anti-feedant effect or growth inhibition) at 200 ppm in test [2] is at least 80%.

For `CCSc1cc(-n2ccc(C(F)(F)F)n2)sc1-c1nc2cc(C(F)(F)F)ncc2n1C` [Example P-3, 2-[3-ethylsulfanyl-5-[3-(trifluoromethyl)pyrazol-1-yl]-2-thienyl]-3-methyl-6-(trifluoromethyl)imidazo[4,5-c]pyridine], the percent effect (mortality or growth inhibition) at 200 ppm in test [4] and in test [1] was at least 80% each time.

As to `CCS(=O)(=O)c1sc(C2CC2)nc1-c1nc2cc(C(F)(F)F)ncc2n1C` [Example P-22, 2-cyclopropyl-5-ethylsulfonyl-4-[3-methyl-6-(trifluoromethyl)imidazo[4,5-c]pyridin-2-yl]thiazole], in test [3], the mortality at 200 ppm is at least 80%. Moreover, the percent effect (mortality or growth inhibition) at 200 ppm in test [4], in test [1] and in test [5] was at least 80% each time. Also, the percent control (mortality, anti-feedant effect or growth inhibition) at 200 ppm in test [2] was at least 80%.

`CCSc1sc(Br)nc1-c1nc2cc(SC(F)(F)F)ncc2n1C` [Example I-10]: the percent effect (mortality or growth inhibition) at 200 ppm in test [4] was at least 80%.

With `CCS(=O)(=O)c1nc(Br)sc1-c1nc2cc(SC(F)(F)F)ncc2n1C` [Example I-11], the percent effect (mortality or growth inhibition) at 200 ppm in test [1] is at least 80%.

`CCS(=O)(=O)c1cc(-n2ccc(C(F)(F)F)n2)sc1-c1nc2cc(C(F)(F)F)nnc2n1C` [Example P-12, 6-[3-ethylsulfonyl-5-[3-(trifluoromethyl)pyrazol-1-yl]-2-thienyl]-7-methyl-3-(trifluoromethyl)imidazo[4,5-c]pyridazine] displayed a mortality at 200 ppm in test [3] of at least 80%. Besides, the percent effect (mortality or growth inhibition) at 200 ppm in test [4], in test [1] and in test [5] was at least 80% each time. The same molecule registered a percent control (mortality, anti-feedant effect or growth inhibition) at 200 ppm in test [2] of at least 80%.

As to `CCS(=O)(=O)c1sc(-c2ccc(Cl)cc2)nc1-c1nc2cc(SC(F)(F)F)ncc2n1C` [Example P-24], in test [4], the percent effect (mortality or growth inhibition) at 200 ppm was at least 80%. Further, in test [2], the percent control (mortality, anti-feedant effect or growth inhibition) at 200 ppm is at least 80%.

Consider `CCS(=O)(=O)c1sc(-c2cc(F)cc(F)c2)nc1-c1nc2cc(SC(F)(F)F)ncc2n1C` [Example P-26], for which the percent effect (mortality or growth inhibition) at 200 ppm in test [4] and in test [1] was at least 80% in each case. For the same molecule, the percent control (mortality, anti-feedant effect or growth inhibition) at 200 ppm in test [2] is at least 80%.

As for `CCS(=O)(=O)c1sc(Br)nc1-c1nc2cc(C(F)(F)F)ncc2n1C` [Example I-9, 2-bromo-5-ethylsulfonyl-4-[3-methyl-6-(trifluoromethyl)imidazo[4,5-c]pyridin-2-yl]thiazole], the percent effect (mortality or growth inhibition) at 200 ppm in test [1] is at least 80%.

In test [3], `CCS(=O)(=O)c1cc(I)sc1-c1nc2cc(SC(F)(F)F)ncc2n1C` [Example I-8, 2-(3-ethylsulfonyl-5-iodo-2-thienyl)-3-methyl-6-(trifluoromethylsulfanyl)imidazo[4,5-c]pyridine] registered a mortality at 200 ppm of at least 80%. Also, the percent effect (mortality or growth inhibition) at 200 ppm in test [4], in test [1] and in test [5] was at least 80% each time. Also, in test [2], the percent control (mortality, anti-feedant effect or growth inhibition) at 200 ppm was at least 80%.

The record behind these values is patent US10125139B2, “Pesticidally active polycyclic derivatives with sulfur substituted five-membered ring heterocycles” (Syngenta Participations AG, priority 2015, dated 2018).
